Assays:
HEI-OC1 cells [1] = experiment: Cellular internalization study of C6-cHy-NPs with pathway inhibitors and over time; assay type: cell-based; conditions: 40 μg/mL inhibitor, 1 h pre-incubation
Experimental: First, blank cHy-NPs (cHy-NPs, without FL or HK encapsulation) were prepared as described below. In, 1 mL colloidal solution of cHy-NPs, 1 mg coumarin-6 (C-6) was added and the mixture was stirred at 200 rpm overnight at room temperature. The NP solution was then centrifuged at 2000 rpm for 5 min to remove unloaded C-6. The supernatant containing C-6-cHy-NPs was transferred to a fresh microcentrifuge tube. The HEI-OC1 (House Ear Institute-Organ of Corti 1) cells were seeded in 96 well plate (10000 cells per well) overnight. After washing with fresh growth media, the media (100 μL) containing 40 μg/mL CPZ, MβCD, GNT, or AML was added to separate columns (2 columns kept untreated as a control group). After 1 h of incubation at 33° C. (5% CO2), 2.5 μL of C6-cHy-NPs (10× diluted with media) were added to each well. The plate was incubated for 4 h and the cells were washed using PBS. After adding fresh PBS, the fluorescence intensity of each well was recorded using a multi-well plate fluorescence spectrophotometer (Synergy 2, BioTek, USA) at λex/em 460/505. In another experiment to confirm the effect of various inhibitors, the cells (20000 per well) were seeded overnight, and incubated with different concentrations (0, 2.5, 5, 10, 20, 30, 40, 50, and 75 μg/mL) of MβCD, GNT, or AML. After treatment, incubation, and washing, the fluorescence intensity of each well was recorded as described above. Furthermore, to study the time of cellular internalization the cells (20000 per well) were treated with C-6-cHy-NPs (5 μL, 10× diluted), and the fluorescence of the samples was recorded after washing at different time intervals (0.25, 0.5, 1, 2, 3, 4, 5, 6, 8, 10, 24, and 48 h) of incubation. For microscopy analysis, the cells were seeded in a 6 well plate (1×10^5 cells/well) and incubated overnight. The next day, cells were washed and in each well media containing C-6-cHy-NPs was added. At different time intervals (0.5, 1, 2, 3, 4, and 5 h), the cells of a well were washed using PBS and analyzed under the fluorescence microscope using a 20× lens (Revolve, Discover Echo Inc., San Diego, CA, USA) at λex 460 nm. Counterstain Hoechst 33342 (1 μg/mL, 10 min incubation in the dark, λex 350 nm) was used.

caspase 3/7 [2] = experiment: Caspase 3/7 activation in CisPt-exposed cells (FLICA, fluorescence microscopy), Example 1; assay type: cell-based; conditions: CisPt-exposed HEI-OC1 cells
Experimental: Novel dual stimuli-responsive nanoformulations have been investigated for the synthesis of ROS-responsive polymers, and thermo-responsive polymers and their characterization using ^1H NMR. Drug loaded NCs comprising BUC and/or DLT in micelles of PPS-mPEG2000 were prepared by nanoprecipitation methods. The BUC-PPS-mPEG2000-NCs and DLT-PPS-mPEG2000-NCs were characterized using DLS and NTA and TEM images. The EE % and DL % of NCs were determined using HPLC and Ellman's assays. The long-term storage stability over two months was checked by using DLS for size and PDI. In vitro assessments were performed on the HEIOC1 cell lines for MTT and Live-dead cell assays for biocompatibility and cellular uptake analysis, respectively. The cytoprotective effect of BUC-NCs, DLT-NCs and BUC/DLT-PPS-mPEG2000-NCs, were studied after treating with various regimens and different concentration with and without cisplatin. The ROS-Scavenging effect nanoformulation was confirmed by the DCFH-DA assay, and FLICA assays. The final formulation, named NanoSensoGel, comprising a combination of a thermo-responsive P407 hydrogel, and the ROS-responsive BUC/DLT loaded PPS-mPEG2000-NCs, was characterized for its bio-responsiveness, a novel method was established to perform the in vitro drug release, and release kinetics mechanism were studied for dual drug release.

[3] = In vitro drug release kinetics from thermoresponsive hydrogel (Korsmeyer-Peppas model); assay type: physicochemical; conditions: PBS pH 7.4; for release from the hydrogel: in 48 h at 25° C.; for maximum release from the hydrogel: in one month at 37° C.
Experimental: Two 24 well plates were taken equipped with 6.5 mm inserts (Transwell®, Costar, Corning, NY, USA) having 8 µm pores polycarbonate support membrane six in each plate. The developed hydrogel formulations containing FL-cHy-NPs and HK-cHy-NPs were filled in the inserts (n=3, in each plate and each formulation). One plate was placed at 37° C. while the other one was kept at 25° C. After 30 min, the receiver media (1 mL, PBS pH 7.4) was filled in each well-containing insert. Other wells were filled with deionized water to maintain humidity in the plate. […] The drug content (FL and HK) was extracted using DCM; solvent-solvent extraction. After evaporating the DCM, the extracted FL and HK content was dissolved in methanol (100 μL, 100% LC-MS grade). The drug quantification of FL and HK in each sample was done using HPLC using the same procedure described above. The release kinetics of FL and HK from both hydrogels were calculated using the Korsmeyer-Peppas model (eq 7). where, Mt is the mass of the drug released at time t; […]

neuromast hair cells = experiment: Otoprotection studies on zebrafish (cisplatin ototoxicity); assay type: in vivo; conditions: 5-6 dpf fish; 33, 17, 2 mM alone or 17+17, 8.5+8.5, 3+3 mM; cisplatin 400 mM, 6 hours
Experimental: Fish were maintained at 28.5° C. in E3 media with a 14-hour light/10-hour dark cycle. Otoprotection studies were performed in 5-6 dpf wild type (TuAB) fish as previously described [2]. Briefly, fish were pre-incubated for one hour in E3 media containing FL, HK or FL+HK and then co-incubated for 6 hours with the corresponding cytoprotective molecules and clinical cisplatin 400 mM. Concentrations were as follow: FL or HK=33 mM, 17 mM and 2 mM; FL+HK=17+17 mM, 8.5+8.5 mM and 3+3 mM. Fish were also incubated with empty NPs as control. After the treatment, fish were transferred to fresh E3 media for one hour to recover, followed by fixation (4% PFA) and processing for confocal imaging. For the detection of neuromast hair cells, fish were immunostained for the hair cell marker, otoferlin (HCS-1, DSHB, 1:200 dilution). Hair cells were manually counted using a Zeiss AxioSkop 2 fluorescence microscope. The neuromasts inspected were part of the cranial system and included the otic, middle, and opercular neuromasts. Ten to twelve fish were used per treatment. Confocal imaging was performed using a Zeiss LSM 700 confocal laser scanning image system. Images were captured at room temperature with automatically set sectioning and processed with ZEN black edition software. Z-stacks are presented as flat Z-projections.

HEI-OC1 cells [4] = experiment: Intracellular ROS generation (DCFH2-DA); assay type: cell-based
Experimental: (§1) The HEI-OC1 Cells (10000 cells/well in 96-well plates) were treated with various treatment groups as described above in the cell cytotoxicity study section. The endpoints for ROS generation, apoptosis, and necrosis studies were set up at 24, 36, and 48 h, respectively. For ROS generation study, the cells were washed two times with fresh media and then culture media containing DCFH2DA reagent (10 μM) was added to each well. After 30 min incubation in dark at 33° C. (5% CO2) the cells were washed with PBS three times. Fresh PBS (100 μL) was added and the fluorescence was recorded at λex/em 480/530 nm using a multi-well plate fluorescence spectrophotometer (Synergy 2, BioTek, USA). […] After washing, the fluorescence was recorded at λex/em 480/530 nm using a multi-well plate fluorescence spectrophotometer (Synergy 2, BioTek, USA). […] After 15 min incubation in dark, the fluorescence was recorded at λex/em 530/615 nm using a multi-well plate fluorescence spectrophotometer (Synergy 2, BioTek, USA). The fluorescence microscopy analysis of ROS generation, apoptosis, and necrosis experiments was performed. […] The cells were observed under the fluorescence microscope using a 20× lens at the respective dye fluorescence filter as described above. For HOECHST-33342 λex/em 350/460 nm fluorescence filter was used.

HEI-OC1 cells [5] = experiment: MitoSOX mitochondrial superoxide assay; assay type: cell-based; conditions: MitoSOX fluorescence
caspase 3/7 [6] = experiment: Caspase 3/7 apoptosis assay; assay type: cell-based; conditions: HEI-OC1
Experimental: as §1

HEI-OC1 cells [7] = experiment: PI staining necrosis / cell death assay; assay type: cell-based; conditions: 48 h; pre-treatment then CisPt; CisPt row is CisPt only
Experimental: as §1

For N=C(N)NC(=O)c1nc(Cl)c(N)nc1N [AML, Amiloride], the “effect of pathway inhibitor pretreatment on cellular internalization of C6-cHy-NPs” value (from here on “effect of pathway inhibitor pretreatment”) (HEI-OC1 cells [1]) was “no significant change in the cellular internalization”.
For CC(C)(S)C(=O)N[C@@H](CS)C(=O)O [BUC, bucillamine], the “inhibition of caspase 3/7 activation” value (caspase 3/7 [2]) was “highly responsible for the inhibition of the caspase 3/7 activation”.
For CN(C)CCCN1c2ccccc2Sc2ccc(Cl)cc21 [CPZ, Chlorpromazine], the “effect of pathway inhibitor pretreatment” value (HEI-OC1 cells [1]) was “significantly reduced cellular internalization”.
For Fc1ccc(C(c2ccc(F)cc2)N2CCN(C/C=C/c3ccccc3)CC2)cc1 [FL, Flunarizine], the “release from the hydrogel” value [3] was roughly 60%, the “maximum release from the hydrogel” value [3] was roughly 50% and the “protection of neuromast hair cells against cisplatin-induced ototoxicity” value (neuromast hair cells) was “prevented hair cell loss”.
With O=c1c(-c2ccc(O)cc2)coc2cc(O)cc(O)c12 [GNT, Genistein] the “effect of pathway inhibitor pretreatment” value (HEI-OC1 cells [1]) was “no significant change in the cellular internalization”.
For C=CCc1ccc(O)c(-c2ccc(O)c(CC=C)c2)c1 [HK, Honokiol], the “release from the hydrogel” value [3] was roughly 60%, the “maximum release from the hydrogel” value [3] was roughly 50% and the “protection of neuromast hair cells against cisplatin-induced ototoxicity” value (neuromast hair cells) was “prevented hair cell loss”.
For O=S([O-])([O-])=S.[Na+].[Na+] [STS, Sodium thiosulphate], the “ROS generation compared to CisPt-only treated cells” value (HEI-OC1 cells [4]; 24 h post CisPt addition) was “did not show a significant ROS generation”, the “ratio of normalized intensities of total cells and DCF-stained cells” value (HEI-OC1 cells [4]; fluorescence microscopy, pre-treatment then CisPt, CisPt row is CisPt only) was 1.53±0.23 and the “mitochondrial superoxide compared to CisPt-only treated cells” value (HEI-OC1 cells [5]) was “significantly reduced mitochondrial superoxide”. The “caspase 3/7 activation compared to CisPt only treated cells” value (caspase 3/7 [6]) was “significantly reduced signals of caspase 3/7 activation” and the “ratio of normalized intensities of total cells and PI-stained cells” value (HEI-OC1 cells [7]) was 2.03±0.02.
For methyl-β-cyclodextrin [MβCD], the “effect of pathway inhibitor pretreatment” value (HEI-OC1 cells [1]) was “no significant change in the cellular internalization”.

— patent US20240423976A1, “COMPOSITIONS AND METHODS FOR TREATING THERAPEUTIC-INDUCED TOXICITIES” (THE BOARD OF REGENTS OF THE UNIVERSITY OF OKLAHOMA, priority 2023, published 2024)
